Data as given in ChEMBL document CHEMBL1201862, “PubChem BioAssay data set” (2004).
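Step 1: Grow cells in 96-well plates. Step 2: Expose to compound for 48 hours at 5 concentrations. Step 3: Interpolate endpoints linearly; if unreached, use highest concentration. GI50 = concentration required for 50% inhibition of growth.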 Activity calls are given as the source filed them. No stated cut-off is given here; in the data, active = GI50 up to about 1.1 µM and inactive = higher.

Tests used:
Test in all cases: NCI-60 cell line screen, 48 h
SW-620 = tested on: SW-620
SNB-19 = tested on: SNB-19
SN12C = tested on: SN12C
HOP-62 = tested on: HOP-62
SK-MEL-5 = tested on: SK-MEL-5
HT-29 = tested on: HT-29
OVCAR-4 = tested on: OVCAR-4
UO-31 = tested on: UO-31
CAKI-1 = tested on: CAKI-1
HCC 2998 = tested on: HCC 2998
A549 = tested on: A549
OVCAR-3 = tested on: OVCAR-3
IGROV-1 = tested on: IGROV-1
RXF 393 = tested on: RXF 393
SF-539 = tested on: SF-539
SK-MEL-28 = tested on: SK-MEL-28
HL-60 = tested on: HL-60
SNB-75 = tested on: SNB-75
RPMI-8226 = tested on: RPMI-8226
DMS-114 = tested on: DMS-114

Measured: GI50

O=c1ccn([C@@H]2C=C(CO)[C@@H](O)[C@H]2O)c(=O)[nH]1
inactive: SW-620 > 625 µM | SNB-19 > 625 µM | SN12C > 625 µM | HOP-62 > 625 µM | SK-MEL-5 > 625 µM | HT-29 > 625 µM | OVCAR-4 > 625 µM | UO-31 > 625 µM | CAKI-1 > 625 µM | HCC 2998 > 625 µM | A549 > 625 µM | OVCAR-3 > 625 µM | IGROV-1 > 625 µM | RXF 393 > 625 µM | SF-539 > 625 µM | SK-MEL-28 > 625 µM | HL-60 > 625 µM | SNB-75 90.4 µM

CCOP(=O)(COCCn1ncc(=O)[nH]c1=O)OCC
inactive: SW-620 > 100 µM | RPMI-8226 > 100 µM | SNB-19 > 100 µM | SN12C > 100 µM | HOP-62 > 100 µM | SK-MEL-5 > 100 µM | HT-29 > 100 µM | UO-31 > 100 µM | CAKI-1 > 100 µM | HCC 2998 > 100 µM | A549 > 100 µM | OVCAR-3 > 100 µM | IGROV-1 > 100 µM | RXF 393 > 100 µM | SF-539 > 100 µM | SK-MEL-28 > 100 µM | HL-60 > 100 µM | SNB-75 > 100 µM

O=c1cnn(C/C=C/CBr)c(=O)[nH]1
inactive: SW-620 13.6 µM | RPMI-8226 5.48 µM | SNB-19 24.7 µM | SN12C 17.9 µM | HOP-62 17.9 µM | SK-MEL-5 13.1 µM | HT-29 13.8 µM | OVCAR-4 20.6 µM | UO-31 14.1 µM | CAKI-1 12.9 µM | HCC 2998 18.5 µM | A549 16.8 µM | OVCAR-3 25.7 µM | IGROV-1 16.2 µM | RXF 393 15.5 µM | SF-539 16.1 µM | SK-MEL-28 19.2 µM | HL-60 8.47 µM | SNB-75 18.8 µM

CN1COCN/C1=N/C#N
inactive: SW-620 > 100 µM | RPMI-8226 > 100 µM | SNB-19 > 100 µM | SN12C > 100 µM | HOP-62 > 100 µM | HT-29 > 100 µM | DMS-114 > 100 µM | OVCAR-4 > 100 µM | UO-31 > 100 µM | CAKI-1 > 100 µM | HCC 2998 > 100 µM | A549 > 100 µM | OVCAR-3 36.1 µM | IGROV-1 > 100 µM | SF-539 > 100 µM | SK-MEL-28 > 100 µM | HL-60 > 100 µM | SNB-75 > 100 µM

NCCCN(CCCN)CCN(CCN(CCCN)CCCN)CCN(CCCN)CCCN
inactive: SW-620 > 100 µM | RPMI-8226 > 100 µM | SNB-19 > 100 µM | SN12C > 100 µM | HOP-62 > 100 µM | SK-MEL-5 > 100 µM | HT-29 > 100 µM | OVCAR-4 > 100 µM | UO-31 > 100 µM | CAKI-1 > 100 µM | HCC 2998 > 100 µM | A549 > 100 µM | OVCAR-3 > 100 µM | IGROV-1 > 100 µM | SK-MEL-28 > 100 µM | HL-60 > 100 µM | SNB-75 4.95 µM

C[C@]12CCC(=O)C(O)=C1CCC2=O
inactive: SW-620 > 100 µM | RPMI-8226 > 100 µM | SNB-19 > 100 µM | SN12C > 100 µM | HOP-62 > 100 µM | SK-MEL-5 > 100 µM | HT-29 > 100 µM | OVCAR-4 > 100 µM | UO-31 > 100 µM | CAKI-1 > 100 µM | HCC 2998 > 100 µM | A549 > 100 µM | OVCAR-3 > 100 µM | IGROV-1 > 100 µM | RXF 393 > 100 µM | SF-539 > 100 µM | SK-MEL-28 > 100 µM | HL-60 > 100 µM | SNB-75 > 100 µM
